Results on 87 compounds are retold here after PubChem BioAssay AID2305 (GlaxoSmithKline (GSK), 2010).

In the experiment the test system is P. falciparum 3D7 growth, pLDH absorbance. The experiment is described as follows: P. falciparum 3D7 growth inhibition, dose response, strain 3D7 (AID 2305).

Where “and” joins values, the source holds several entries; their conditions need not be identical. Equal entries are not always repeated.

Regarding `Cc1cc(NN=Cc2ccc(F)cc2)c2cc(C(F)(F)F)ccc2n1`, the IC50 stood at 230 nM. The figure for `Cc1ccc2c(-c3ccc([N+](=O)[O-])o3)cc(C)nc2c1` is 40 nM. With `CCCN1CCC=C(c2cccc(Nc3nccc(Nc4cc(OC)ccc4C)n3)c2)C1`, the IC50 came to 1040 nM. `NCc1ccc(-c2ccccc2CNC2CCN(Cc3ccccc3)CC2)cc1` had an IC50 of 770 nM. For the compound `c1ccc(Oc2ccc(Nc3ccnc(Nc4ccc5cn[nH]c5c4)n3)cc2)cc1`, the IC50 was 730 nM. This IC50 and that of the compound before are within 1.5-fold of each other. As to `Cc1ccc(Nc2nc(C)cc(NC3CC3)n2)cc1`, the IC50 was determined as 1220 nM. `CCn1c(-c2nonc2N)nc2c(-c3cccc(NC(=O)Nc4ccccc4OC)c3)ncc(OCCCN)c21` came in with an IC50 of 1000 nM.

For the compound `O=C(NCC1CCN(Cc2ccc3c(c2)OCCO3)C1)c1cc(-c2cccc(C(F)(F)F)c2)cs1` (configuration not stated), the IC50 came out at 980 nM. Take `COc1ccc2ccc(F)c(CCN3CCC(NCc4cc5c(cn4)OCCO5)CC3)c2n1`: the IC50 is 840 nM. Compound `O=C(NCc1cccc2ccccc12)C(c1cc2ccccc2o1)N1CCN(C(c2ccccc2)c2ccccc2)CC1` (configuration not stated) returned a concentration for half-maximal inhibition (IC50) of 670 nM. This IC50 and that of the compound before are within 1.5-fold of each other. The compound `COc1ccc(Nc2nccc(-c3ccc4ccnc(NCCCCN)c4c3)n2)cc1` showed an IC50 of 750 nM. This IC50 and that of the compound before are within 1.5-fold of each other. The figure for `COC(=O)c1ccc(C2OC3(C(=O)c4ccccc4C3=O)C(OC)=C2Cl)cc1C(C)=O` (configuration not stated) is 550 nM. Turning to `N#Cc1ccc(-c2ccc3nc(N4CCCN(C5CCC5)CC4)ccc3c2)cc1`, the IC50 came to 1500 nM.

Take `FC(F)(F)c1cccc(C=NNc2nc3ccccc3[nH]2)c1`: the IC50 was determined as 150 nM. `CCCN(CCC)C(=O)c1cc(C(=O)N[C@@H](Cc2ccccc2)[C@H](O)CNC2CC2)cc(N2CCCCS2(=O)=O)c1` showed an IC50 of 160 nM. In the case of `COc1ccc(CNC2CCN(C)CC2)cc1-c1ccc(S(=O)(=O)NC2CCC2)c(C)c1`, the IC50 was 990 nM.

Take `CCc1ccc(NC(=O)c2cccc(CN3CCCN(CC4CCCCC4)CC3)c2)cc1`: the IC50 amounted to 950 nM. For `O=C(NCC1CCN(CC2CCCCC2)C1)c1cc(-c2cccc(Cl)c2)cs1` (configuration not stated), the IC50 was determined as 1090 nM. The compound `COc1cccc(C(=O)NCc2n[nH]c(=S)n2-c2ccc(Cl)c(Cl)c2)c1` registered an IC50 of 170 nM.

On to `O=S(=O)(NCCN1CCCC1)c1cccc(-c2cccc(CNCc3ccccc3)c2)c1`, for which the IC50 worked out at 810 nM. `Cc1cccc2[nH]c(-c3cccc(-c4ccc(CNCc5cnn(-c6ccccc6)n5)cc4)c3)nc12` displayed an IC50 of 920 nM.

On to `Cc1ccc(Nc2nc(C)cc(Nc3cccc(NS(C)(=O)=O)c3)n2)cc1`, for which the half-maximal inhibitory concentration (IC50) came out at 920 nM. Turning to `CC(=O)Nc1csc(-c2cnc(/C=C(\C)C[C@@H]3OC[C@H](C[C@@H]4O[C@H]4[C@@H](C)[C@H](C)O)[C@@H](O)[C@H]3O)o2)c1`, the IC50 worked out at 180 nM. As for `COCCNCc1ccc(-c2ccc(CN(C(=O)Nc3ccccc3)C3CCN(Cc4ccccc4)CC3)cc2)cc1`, the figure is 750 nM; as for `Cc1ccc(-c2[nH]n3c(=O)c4c(nc3c2C)CCCC4)cc1`, 220 nM. The figure for `COc1cc(NC2=NS(=O)(=O)c3cc(Cl)ccc3N2C)cc(OC)c1OC` is 420 nM. As for `COc1ccc(C2CC(=O)C3=C(C2)NC(C)=C(C(=O)OC(C)C)C3c2c(F)cccc2Cl)cc1OC` (configuration not stated), the figure is 820 nM; as for `COc1ccccc1-n1ccnc1SCC(=O)Nc1cc(C(F)(F)F)ccc1Cl`, 10 nM; as for `O=C(Nc1cccc(CN2CCCN(Cc3ccccc3)CC2)c1)c1ccc(Cl)c(Cl)c1`, 900 nM.

For `CC[C@H]1CN2CC[C@H]1C[C@@H]2[C@H](O)c1ccnc2ccc(O)cc12`, the IC50 is 1040 nM.

As for `O=C(NCCCCN1CCC(c2ccc3c(c2OC(=O)c2ccc(NC(=O)c4ccc(Cl)cc4)cc2)CCCC3)CC1)c1ccc(NC(=O)c2ccc(Cl)cc2)cc1`, the IC50 is 200 nM. As for `CCOC(=O)c1cnc2c(OC)cc(OC)c(Cl)c2c1Nc1cccc(C)c1C`, the IC50 came out at 310 nM. As to `COc1cc2c(c(OC)c1OC)C[C@H]1c3c(cc4c(c3-2)OCO4)CCN1C`, the IC50 is 970 nM. `Cc1nn(C2CCS(=O)(=O)C2)c(C)c1C1Nc2ccccc2C(=O)N1Cc1ccc2c(c1)OCO2` (configuration not stated) showed an IC50 of 510 nM. In turn, `N#Cc1cccc(/C=C/C(=O)NC2CCC(CCN3CCc4ccc(-c5cnccn5)cc4CC3)CC2)c1` (configuration not stated) registered an IC50 of 770 nM.

For the compound `CCC[C@@H]([C@@H](CC1CCCCC1)C(=O)N[C@H](C(=O)Nc1nccs1)[C@H](C)O)N(O)C=O`, the IC50 came out at 150 nM. `CC1CCN(CCCNc2ccc(C(=O)Nc3ccc(C(F)(F)F)cc3)cc2[N+](=O)[O-])CC1` showed an IC50 of 340 nM.

`O=C(Cc1ccccc1)NC(CCN1CCC(O)(c2cccc(C(F)(F)F)c2)CC1)c1ccc(Cl)c(Cl)c1` (configuration not stated) showed an IC50 of 860 nM. In turn, `CNc1ccc(CNCc2cccc(-c3ccc(-c4nc5ccccc5[nH]4)cc3)c2)cc1` displayed an IC50 of 300 nM.

As for `CCn1c(-c2nonc2N)nc2c(-c3cc4ccccc4s3)ncc(C(=O)N3CCC(N)C3)c21` (configuration not stated), the IC50 worked out at 870 nM. `CN1CCC(NCCS(=O)(=O)c2cccc(Nc3ccc(-c4cccc(F)c4)cn3)c2)CC1`: the IC50 stood at 1360 nM. `C=CCC(C)n1ncc2c3c(N)nc(N)nc3ccc21` (configuration not stated) came in with an IC50 of 50 nM. `Cc1c(Cl)ccc2sc(N3CCN(C(=O)c4ccc([N+](=O)[O-])o4)CC3)nc12` yielded an IC50 of 750 nM. The figure for `CCNCc1ccc(-c2cc3ncnc(Nc4ccc(OCc5cccc(F)c5)c(Cl)c4)c3s2)[nH]1` is 110 nM. On to `COc1cccc(-c2nn(C)c3sc(C(=O)Nc4cccnc4)cc23)c1`, for which the IC50 amounted to 950 nM.

Compound `Cc1cc(=O)c(-c2ccc(Oc3ccc(OC(F)(F)F)cc3)cc2)c(C)[nH]1` yielded an IC50 of 360 nM. This IC50 is about 2.6-fold lower than that of the compound before.

In the case of `O=C(Cn1c(CCc2cccc(F)c2F)nc(=O)c2ccccc21)N(Cc1ccc(-c2ccc(C(F)(F)F)cc2)cc1)C1CCN(C2CCSCC2)CC1`, the IC50 came to 860 nM.

Take `CCN(CC)CCNC(=O)c1ccc(NC(=O)c2cc(-c3ccncc3)nc3ccccc23)cc1`: the IC50 came to 770 nM. `COc1cc(C2CCCCC2)c(OC)cc1CC1c2cc(O)c(Cl)cc2CCN1C` (configuration not stated) yielded an IC50 of 450 nM. `O=C(CCc1cccc(O)c1)NCC(NCCCNc1cc(=O)c2ccccc2[nH]1)c1cc(Br)cc(Br)c1` (configuration not stated) gave an IC50 of 1170 nM.

In turn, `CN(C)c1ccnc2ccc(NC(=O)Nc3ccnc4ccccc34)cc12` registered an IC50 of 130 nM.

Take `CC(CN1CCN(C)CC1)C(=O)Nc1cccc(-c2ccc(-c3nc4ccc(F)cc4[nH]3)cc2)c1` (configuration not stated): the IC50 came to 810 nM. `Cc1cc(N[C@@H](CC(C)C)C(=O)NCCc2ccccc2)nc(NCCc2cccs2)n1` yielded an IC50 of 1200 nM. The IC50 values of the last two compounds are within 1.5-fold of each other. Regarding `O=C(Nc1ccc([N+](=O)[O-])cc1Br)c1cc2ccccc2nc1Cl`, the IC50 was found to be 190 nM. As for `N#Cc1cc([N+](=O)[O-])ccc1-n1nc(-c2cccc(Cl)c2)n(CC2CCCO2)c1=S` (configuration not stated), the figure is 910 nM; as for `CCN(CC)CCn1c2ccccc2c2ccc(C(=O)Nc3ccc4sc(C)nc4c3)cc21`, 1060 nM; as for `NC(N)=NN=Cc1c2ccccc2c(Cl)c2cc(Cl)ccc12`, 790 nM.

`O=S(=O)(c1c(Cl)cccc1Cl)N1CCCCC(c2ccc(C(F)(F)F)cc2)=N1` registered an IC50 of 130 nM. For the compound `CCCC(C)Nc1nc(C)cc(N[C@@H](Cc2ccccc2)C(=O)NCc2cccc(F)c2)n1` (some centres not stated), the IC50 was determined as 880 nM. Turning to `CCOc1ccccc1C1CCN(CCCCNC(=O)c2ccc(NC(=O)c3ccc(Cl)cc3)cc2)CC1`, the IC50 worked out at 850 nM. With `O=C(c1csc(-c2cccnc2)n1)N1CCc2cc3nccc(N4CCN5CCC[C@H]5C4)c3cc21`, the IC50 was 700 nM.

With `CN1CCN(c2ccnc3ccc(NC(=O)Nc4cccc5c(-c6ccncc6)cccc45)cc23)CC1`, the IC50 came out at 880 nM. The IC50 values of the last two compounds are within 1.5-fold of each other. Regarding `COc1ccc2nccc([C@@H](O)CN3CCC(NCc4cn5cc(F)ccc5n4)CC3)c2c1`, the IC50 is 780 nM. This IC50 and that of the compound before are within 1.5-fold of each other.

On to `O=C(Nc1cc(Cl)ccc1O)c1cc(-c2ccccc2O)no1`, for which the half-inhibitory concentration (IC50) turned out to be 1090 nM.

On to `CC(C)CCN1CCCN(Cc2cccc(NC(=O)c3cc4ccccc4s3)c2)CC1`, for which the IC50 came to 920 nM. As for `Nc1c2c(nc3ccccc13)C(=Cc1ccc(O)cc1)CCC2`, the figure is 180 nM. `CSC1=NC(=Nc2ccccc2C)C2(CCC(C(C)(C)C)CC2)N1c1ccccc1Cl` (configuration not stated) displayed an IC50 of 800 nM. As for `COc1cc2nc(N3CCC(CNC(=O)/C=C/c4ccccc4F)CC3)nc(N)c2cc1OC`, the figure is 580 nM; as for `CC(C)Nc1nc(NCCc2cnc[nH]2)nc(Nc2ccc(Oc3ccccc3)cc2)n1`, 890 nM; as for `Nc1ccc2c(N)c3ccccc3nc2c1`, 810 nM. The figure for `COc1ccc(-c2nc(NC(=O)CS(=O)(=O)c3ccc(F)cc3)sc2C)cc1` is 240 nM; for `O=C(Nc1ccc(Oc2ccc(OC(F)(F)F)cc2)cc1)c1ccco1` it is 1130 nM; for `NCc1ccc(Nc2nccc(Nc3ccc(-c4ccccc4)cc3)n2)cc1` it is 890 nM. Take `O=C(c1ccc([N+](=O)[O-])o1)N1CCN(c2ccccc2)CC1`: the IC50 was 40 nM.

In the case of `FC(F)(F)c1ccc2nc(-c3cccc(-c4cccc(CN5CCN(c6ccncc6)CC5)c4)c3)[nH]c2c1`, the IC50 is 160 nM. Compared with the last compound, the IC50 is about 4-fold higher. In turn, `CC(Cc1ccc(CNC(=O)c2ccc(CC(C)NCCc3cccc(Cl)c3)cc2)cc1)NCCc1cccc(Cl)c1` (configuration not stated) came in with an IC50 of 700 nM. This IC50 lies about 4.4-fold higher than the previous one. As for `O=C(Nc1cccc(CN2CCCN(Cc3cccc(Cl)c3)CC2)c1)c1ccc(-c2ccccc2)cc1`, the figure is 1230 nM; as for `COc1cc2nc(NCCN3CCOCC3)n3nc(-c4ccccc4)nc3c2cc1OC`, 220 nM.

`Cc1ccc2c(=O)n(C)c(=O)n(C)c2n1`: the IC50 was 820 nM. Turning to `CN(C)c1ccc(C=Cc2nc(=O)c3ccccc3o2)cc1`, the IC50 was determined as 40 nM. This IC50 lies about 20-fold lower than the previous one. As to `NC(N)=Nc1nc(-c2ccc(NC(=O)Nc3cccc(-c4csc(N=C(N)N)n4)c3)cc2)cs1`, the IC50 is 1010 nM. `Cc1nc(N2CCC(C)CC2)c2c3c(sc2n1)CCCC3`: the IC50 was determined as 1060 nM. The figure for `CCOCc1cn(CC(=O)c2ccc(-c3ccccc3)cc2)c(C)nc1=N` is 320 nM. The figure for `CCc1sc(N2CCN(C)CC2)nc1C(=O)Nc1ccc(F)cc1C(F)(F)F` is 180 nM; for `Cn1cccc1CCNCc1ccc(-c2cccc(-c3nc4ccccc4[nH]3)c2)cc1` it is 1210 nM; for `S=C(Nc1ccc2c(c1)OCCO2)NC1CCC(CN2CCC(c3c[nH]c4ccccc34)CC2)CC1` (configuration not stated) it is 650 nM and 1000 nM. As for `Cc1cc(NCCC(=O)NCCOc2ccccc2)nc(NCCOc2ccccc2)n1`, the figure is 870 nM.

Broadly, the IC50 is the point on the concentration scale where inhibition reaches its midpoint. Read a low IC50 as inhibition by little substance.
